According to US20150376198A1, “MODULATORS OF VASOPRESSIN RECEPTORS WITH THERAPEUTIC POTENTIAL” (priority 2013, published 2015):
pIC50, pKi: −log10 of the molar value. Read-outs that look alike come from different tables or passages of the source.

Legend:
OT receptor = target: T1, OT receptor (Homo sapiens, UniProt P30559); test: OT receptor binding (primary binding at 10 μM and Ki); conditions: for pKi: read-out: OT binding Ki; for inhibition at 10 µM: read-out: OT binding, mean % inhibition
T1 sequence (P30559 1-389): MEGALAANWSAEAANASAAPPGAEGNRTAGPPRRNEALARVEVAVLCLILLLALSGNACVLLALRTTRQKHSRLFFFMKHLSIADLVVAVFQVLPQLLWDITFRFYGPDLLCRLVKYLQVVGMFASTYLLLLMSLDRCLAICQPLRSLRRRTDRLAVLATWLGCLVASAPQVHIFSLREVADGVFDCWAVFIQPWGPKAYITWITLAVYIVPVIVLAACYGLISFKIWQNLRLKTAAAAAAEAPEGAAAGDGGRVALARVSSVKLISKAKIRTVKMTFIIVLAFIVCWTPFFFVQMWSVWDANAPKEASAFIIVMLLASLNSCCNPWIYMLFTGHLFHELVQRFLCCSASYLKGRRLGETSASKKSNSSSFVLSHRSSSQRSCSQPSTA
Experimental: (§1) The default concentration for primary binding experiments was 10 μM.
(§2) See Examples for further details.

human V1a receptor = target: T2, human V1a receptor (Homo sapiens, UniProt P37288); test: Vasopressin V1a receptor binding assay (3H-AVP competition, CHO cells)
T2 construct: expressed in transfected cells; host or cells: CHO cells (G418-selected hV1a cell line)
Experimental: (§3) Data represent Ki values (nM) or mean % inhibition (indicated as %) for exemplary compounds of formula (I) tested versus receptor subtypes.
as §1
Vasopressin V1a Receptor Binding Assay.
A cell line expressing the human Via receptor in CHO cells is used. The hV1a cDNA sequence is described by Thibonnier et al., (1994), and the expression method is the same as described by Morel et al. (1992). The hV1a cell line is grown in alpha-MEM with 10% fetal bovine serum and 250 ug/ml G418 (Gibco, Grand Island, N.Y., USA). For competitive binding assay, hV1a cells are plated into 6-well culture plate at 1:10 dilution from a confluency flask, and maintained in culture for at least two days. Culture medium is then removed, cells washed with 2 ml binding buffer (35 mM Hepes, 0.25% BSA, 1× DMEM, PH=7.0). To each well, 990 μl binding buffer containing 1 nM 3H-AVP is added, followed by 10 μl series diluted Example compounds dissolved in DMSO. All incubations are done in triplicate and dose-inhibition curves consisting of total binding (DMSO) and 5 concentrations (0.1, 1.0, 10, 100, and 1000 nM) of test agents encompassing the IC50. 100 nM cold AVP (Sigma) is used to assess non-specific binding. Cells are incubated for 45 minutes at 37° C., assay mixture is removed and each well is washed three times with PBS (pH=7.4). 1 ml 2% SDS was added per well, plates were let sit for 30 minutes. The whole content of a well is transferred to a scintillation vial. Each well is rinsed with 0.5 ml PBS which is then added to the corresponding vial. Scintillation fluid (Ecoscint) is then added at 3 ml per vial. Samples are counted in a liquid scintillation counter (Beckman LS3801). IC50 values are calculated by Prism Curve fitting software.

V2 receptor = V2 receptor (Homo sapiens, UniProt P30518); test: V2 receptor binding (primary binding at 10 μM and Ki); conditions: for inhibition at 10 µM: read-out: V2 binding, mean % inhibition
Experimental: as §3, §1, §2

[1] = target: human Arginine Vasopressin Receptor 1a (AVPR1a) (Homo sapiens, UniProt P37288); test: cell-based; conditions: read-out: V1a-R IC50
Sequence of human Arginine Vasopressin Receptor 1a (AVPR1a) (P37288 whole entry): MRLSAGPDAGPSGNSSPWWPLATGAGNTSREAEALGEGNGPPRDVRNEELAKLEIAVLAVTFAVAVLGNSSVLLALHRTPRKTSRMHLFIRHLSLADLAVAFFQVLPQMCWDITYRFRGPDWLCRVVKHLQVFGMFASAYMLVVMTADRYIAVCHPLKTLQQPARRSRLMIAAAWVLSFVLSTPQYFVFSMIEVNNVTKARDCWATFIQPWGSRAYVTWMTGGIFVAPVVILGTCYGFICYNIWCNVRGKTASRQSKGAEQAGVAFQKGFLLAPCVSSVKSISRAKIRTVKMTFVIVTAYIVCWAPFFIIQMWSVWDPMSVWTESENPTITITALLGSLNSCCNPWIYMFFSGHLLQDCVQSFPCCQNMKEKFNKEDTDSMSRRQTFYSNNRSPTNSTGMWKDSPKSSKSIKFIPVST

Sequence of V2 receptor (P30518 whole entry): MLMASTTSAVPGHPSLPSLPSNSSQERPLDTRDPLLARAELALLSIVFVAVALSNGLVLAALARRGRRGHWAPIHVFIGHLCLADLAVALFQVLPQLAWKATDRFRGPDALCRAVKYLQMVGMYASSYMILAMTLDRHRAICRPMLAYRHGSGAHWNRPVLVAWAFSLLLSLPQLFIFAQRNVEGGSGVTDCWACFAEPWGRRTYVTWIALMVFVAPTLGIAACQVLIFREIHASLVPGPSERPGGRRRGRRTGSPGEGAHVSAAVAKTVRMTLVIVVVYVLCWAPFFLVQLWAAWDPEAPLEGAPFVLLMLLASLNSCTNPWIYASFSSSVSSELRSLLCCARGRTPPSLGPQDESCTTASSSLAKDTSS
T2 sequence (P37288 whole entry): as the sequence (P37288 whole entry) above

| pIC50 [1] | SMILES | pKi (OT receptor) | pKi (human V1a receptor) | inhibition at 10 µM (V2 receptor) [%] | further results |
| --- | --- | --- | --- | --- | --- |
|  | COc1ccc(N(CC2CC2)C(=O)N2CCN(c3ccccc3C)CC2)cc1 [Compound 3] | 9.00 | 9.05 |  | pKi (V2 receptor): 6.15 |
|  | CCN(C(=O)N1CCN(c2ncccc2C(F)(F)F)CC1)c1ccc(OC)cc1 [Compound 6] | 7.35 | 6.95 | 33 |  |
|  | CCN(C(=O)N1CCN(c2ncccc2C)CC1)c1ccc(OC)cc1 [Compound 21] | 6.69 | 6.94 | 24.3 |  |
|  | COc1ccc(N(CC2CC2)C(=O)C2CCN(Cc3ccccc3Cl)C2)cc1 (centres unmarked) [Compound 35] | 7.43 | 7.15 | < 50 |  |
|  | COc1ccc(N(CC2CC2)C(=O)N2CCN(c3cc(Cl)ccc3C)CC2)cc1 [Compound 31] | 8.22 | 8.30 |  | pKi (V2 receptor): 5.13 |
|  | COc1ccc(N(CC2CC2)C(=O)N2CCN(c3ncc(Cl)cc3Cl)CC2)cc1 [Compound 33] | 8.39 | 8.52 |  | pKi (V2 receptor): 6.69 |
|  | Cc1ccccc1N1CCN(C(=O)N(CC2CC2)c2ccc(OC(F)(F)F)cc2)CC1 [Compound 29] | 7.21 | 7.92 |  | pKi (V2 receptor): 6.80 |
|  | CCN(C(=O)N1CCN(c2ncccc2C#N)CC1)c1ccc(OC)cc1 [Compound 19] | 6.12 | 6.06 | 5.7 |  |
|  | COc1ccccc1N(CC1CC1)C(=O)N1CCN(c2ccccc2C)CC1 [Compound 28] | 7.29 | 6.97 |  | pKi (V2 receptor): 5.30 |
|  | CCN(C(=O)N1CCN(c2ncccn2)CC1)c1ccc(OC)cc1 [Compound 22] |  |  | 6.6 | inhibition at 10 µM (OT receptor): 27.7%; pKi (human V1a receptor; read-out: V1A binding Ki): 5.80 |
|  | COc1ccc(-n2c(C)nnc2-c2ccc(CNC(=O)N3CCN(Cc4cc(O)cc(O)c4)CC3)c(C)c2)cn1 [Compound 14] |  |  | 5.8 | inhibition at 10 µM (OT receptor): 19.6% |
|  | CCN(C(=O)N1CCN(C(=O)OC(C)(C)C)CC1)c1ccc(OC)cc1 [Compound 10] |  |  |  | inhibition at 10 µM (OT receptor): 17.1%; inhibition at 10 µM (human V1a receptor; read-out: V1A binding, mean % inhibition): 2.2% |
|  | Cc1cc(-c2nnc(C)n2-c2ccccc2)ccc1CNC(=O)N1CCN(Cc2cc(O)cc(O)c2)CC1 [Compound 11] |  |  |  | inhibition at 10 µM (OT receptor): 14.8% |
|  | CCN(C(=O)N1CCN(C(=O)C23CC4CC(CC(C4)C2)C3)CC1)c1ccc(OC)cc1 [Compound 25] |  |  | 40.4 | inhibition at 10 µM (OT receptor): 40.7%; pKi (human V1a receptor; read-out: V1A binding Ki): 5.41 |
|  | CCN(C(=O)C1CCN(c2ncccc2C(F)(F)F)CC1)c1ccc(OC)cc1 [Compound 24] | 6.58 | 5.93 | 23.3 |  |
|  | COc1ccccc1N1CCN(C(=O)N(CC2CC2)c2ccc(OC(F)(F)F)cc2)CC1 [Compound 32] | 8.64 | 7.96 |  | pKi (V2 receptor): 5.77 |
|  | CCN(C(=O)N1CCN(c2ccccn2)CC1)c1ccc(OC)cc1 [Compound 17] | 6.93 | 7.10 | 17.9 |  |
| 7.08 | O=C(C1CCN(c2ncccc2C(F)(F)F)CC1)N(CC1CC1)c1ccc(Cl)cc1 [Compound 143] |  |  |  |  |
| 7.31 | O=C(C1CCN(c2ncnc3ccc(F)cc23)CC1)N1CCCCc2cc(Cl)ccc21 [Compound 212] |  |  |  |  |
| 5.83 | O=C(c1ccccc1F)N1CCC(C(=O)N2CCCCc3cc(Cl)ccc32)CC1 [Compound 84] |  |  |  |  |
|  | COC(=O)CC(NC(=O)OC(C)(C)C)C(=O)N1CCN(c2ccccc2C)CC1 (centres unmarked) [Compound 12] |  |  |  | inhibition at 10 µM (OT receptor): 10.6% |
| 5.24 | N#Cc1ccc(C(=O)N2CCC(C(=O)N3CCCCc4cc(Cl)ccc43)CC2)cc1 [Compound 113] |  |  |  |  |
| 6.06 | O=C(C1CCN(c2ncnc3cc(Cl)ccc23)CC1)N(CC1CC1)c1ccc(Cl)cc1 [Compound 193] |  |  |  |  |
| 6.91 | O=C(C1CCN(c2ccc(C(F)(F)F)cn2)CC1)N(CC1CC1)c1ccc(Cl)cc1 [Compound 145] |  |  |  |  |
| 7.27 | O=C(N1CCN(c2ncccc2C(F)(F)F)CC1)N1CCCCc2cc(Cl)ccc21 [Compound 126] |  |  |  |  |
| 7.77 | O=C(C1CCN(c2cc(C(F)(F)F)ccn2)CC1)N1CCCCc2cc(Cl)ccc21 [Compound 178] |  |  |  |  |
| 7.96 | O=C(C1CCN(c2ccc(Cl)cn2)CC1)N1CCCCc2cc(Cl)ccc21 [Compound 225] |  |  |  |  |
| 7.72 | O=C(C1CCN(c2ncc(Cl)cc2F)CC1)N1CCCCc2cc(Cl)ccc21 [Compound 223] |  |  |  |  |
| 7.80 | O=C(C1CCN(c2ncc3ccccc3n2)CC1)N1CCCCc2cc(Cl)ccc21 [Compound 211] |  |  |  |  |
